Assay results from ChEMBL document CHEMBL3352035, “Design and synthesis of new 7-(N-substituted-methyl)-camptothecin derivatives as potent cytotoxic agents” (Bioorg Med Chem Lett, 2014).

Key:
A549 [1] = test: Cytotoxicity against human A549 cells after 72 hrs sulforhodamine B colorimetric assay; conditions: A549, 72 h
KB = test: Cytotoxicity against human KB cells after 72 hrs sulforhodamine B colorimetric assay
MDA-MB-231 = test: cells; conditions: Homo sapiens, MDA-MB-231, 72 h
Description: Cytotoxicity against human MDA-MB-231 cells after 72 hrs sulforhodamine B colorimetric assay

cells = conditions: Homo sapiens, KBVIN, 72 h
Description: Cytotoxicity against multidrug-resistant human KBVIN cells after 72 hrs sulforhodamine B colorimetric assay

[2] = Ratio of topotecan IC50 to compound IC50 for multidrug-resistant human KBVIN cells after 72 hrs sulforhodamine B colorimetric assay; format: functional
A549 [3] = test: Ratio of topotecan IC50 to compound IC50 for human A549 cells after 72 hrs sulforhodamine B colorimetric assay; format: functional

In the case of `CC[C@@]1(O)C(=O)OCc2c1cc1n(c2=O)Cc2c-1nc1ccccc1c2CNCCO`, the IC50 (A549 [1]) is reported as 0.15 µM, the IC50 (KB) is reported as 0.208 µM and the IC50 (MDA-MB-231) is reported as 0.378 µM. The IC50 (cells) was 0.183 µM.
In the case of `CC[C@@]1(O)C(=O)OCc2c1cc1n(c2=O)Cc2c-1nc1ccccc1c2CNC1CCCCC1`, the IC50 (A549 [1]) is reported as 0.0188 µM, the IC50 (KB) is reported as 0.0362 µM and the IC50 (MDA-MB-231) is reported as 0.0532 µM. It also gave an IC50 (cells) of 0.0165 µM.
`CC[C@@]1(O)C(=O)OCc2c1cc1n(c2=O)Cc2c-1nc1ccccc1c2CNc1ccc(Cl)cc1` showed an IC50 (A549 [1]) of 0.0391 µM, an IC50 (KB) of 0.0397 µM and an IC50 (MDA-MB-231) of 0.0644 µM. The IC50 (cells) was 0.0129 µM.
Molecule `CC[C@@]1(O)C(=O)OCc2c1cc1n(c2=O)Cc2c-1nc1ccccc1c2CNc1ccc(C)cc1` has an IC50 (A549 [1]) of 0.0587 µM, an IC50 (KB) of 0.0817 µM and an IC50 (MDA-MB-231) of 0.0927 µM. The IC50 (cells) was 0.0795 µM.
`CC[C@@]1(O)C(=O)OCc2c1cc1n(c2=O)Cc2c-1nc1ccccc1c2CNc1ccccn1` showed an IC50 (A549 [1]) of 0.0514 µM, an IC50 (KB) of 0.0786 µM and an IC50 (MDA-MB-231) of 0.108 µM. It also gave an IC50 (cells) of 0.0706 µM.
`CC[C@@]1(O)C(=O)OCc2c1cc1n(c2=O)Cc2c-1nc1ccccc1c2CNc1ccc(OC)cc1` gave an IC50 (A549 [1]) of 0.047 µM, an IC50 (KB) of 0.0758 µM and an IC50 (MDA-MB-231) of 0.0842 µM. It also gave an IC50 (cells) of 0.0773 µM.
In the case of `CC[C@@]1(O)C(=O)OCc2c1cc1n(c2=O)Cc2c-1nc1ccccc1c2CN(C(C)C)C(C)C`, the IC50 (A549 [1]) is reported as 0.534 µM, the IC50 (KB) is reported as 0.813 µM and the IC50 (MDA-MB-231) is reported as 1.11 µM. It also gave an IC50 (cells) of 1.06 µM.
For `CC[C@@]1(O)C(=O)OCc2c1cc1n(c2=O)Cc2c-1nc1ccccc1c2CNc1ccc(F)cc1`, the IC50 (A549 [1]) was 0.0063 µM, the IC50 (KB) was 0.005 µM and the “Ratio IC50” value [2] was 7. The IC50 (MDA-MB-231) was 0.03 µM, the IC50 (cells) was 0.0132 µM and the “Ratio IC50” value (A549 [3]) was 7.
For `CCCNCc1c2c(nc3ccccc13)-c1cc3c(c(=O)n1C2)COC(=O)[C@]3(O)CC`, the IC50 (A549 [1]) was 0.0048 µM, the IC50 (KB) was 0.015 µM and the “Ratio IC50” value [2] was 7. The IC50 (MDA-MB-231) was 0.0316 µM, the IC50 (cells) was 0.0217 µM and the “Ratio IC50” value (A549 [3]) was 7.
With `CC[C@@]1(O)C(=O)OCc2c1cc1n(c2=O)Cc2c-1nc1ccccc1c2CNc1ccc(Br)cc1` the IC50 (A549 [1]) was 0.0592 µM, the IC50 (KB) was 0.0821 µM and the IC50 (MDA-MB-231) was 0.114 µM. The IC50 (cells) was 0.0633 µM.
`CC[C@@]1(O)C(=O)OCc2c1cc1n(c2=O)Cc2c-1nc1ccccc1c2CN1CCCC1` showed an IC50 (A549 [1]) of 0.0155 µM, an IC50 (KB) of 0.0371 µM and an IC50 (MDA-MB-231) of 0.0609 µM. The IC50 (cells) was 0.0208 µM.
`CC(=O)O[C@H]1C(=O)[C@@]2(C)[C@H]([C@H](OC(=O)c3ccccc3)[C@]3(O)C[C@H](OC(=O)[C@H](O)[C@@H](NC(=O)c4ccccc4)c4ccccc4)C(C)=C1C3(C)C)[C@]1(OC(C)=O)CO[C@@H]1C[C@@H]2O` [PACLITAXEL] showed an IC50 (A549 [1]) of 0.0057 µM, an IC50 (KB) of 0.0039 µM and an IC50 (MDA-MB-231) of 0.0066 µM. It also gave an IC50 (cells) of 1.44 µM.
With `CC[C@@]1(O)C(=O)OCc2c1cc1n(c2=O)Cc2c-1nc1ccccc1c2CN1CCCCC1` the IC50 (A549 [1]) was 0.0219 µM, the IC50 (KB) was 0.0499 µM and the IC50 (MDA-MB-231) was 0.0699 µM. For the same molecule, the IC50 (cells) was 0.0205 µM.
In the case of `CC[C@@]1(O)C(=O)OCc2c1cc1n(c2=O)Cc2c-1nc1ccccc1c2CN1CCN(C)CC1`, the IC50 (A549 [1]) is reported as 0.0622 µM, the IC50 (KB) is reported as 0.0895 µM and the IC50 (MDA-MB-231) is reported as 0.11 µM. For the same molecule, the IC50 (cells) was 0.274 µM.
`CC[C@@]1(O)C(=O)OCc2c1cc1n(c2=O)Cc2c-1nc1ccccc1c2CNc1cccc(Cl)c1` showed an IC50 (A549 [1]) of 0.0504 µM, an IC50 (KB) of 0.0713 µM and an IC50 (MDA-MB-231) of 0.0961 µM. It also gave an IC50 (cells) of 0.0688 µM.
With `CC[C@@]1(O)C(=O)OCc2c1cc1n(c2=O)Cc2c-1nc1ccccc1c2CNc1ccccc1OC` the IC50 (A549 [1]) was 0.0023 µM, the IC50 (KB) was 0.0046 µM and the “Ratio IC50” value [2] was 7. The IC50 (MDA-MB-231) was 0.0264 µM, the IC50 (cells) was 0.0149 µM and the “Ratio IC50” value (A549 [3]) was 7.
Molecule `CC[C@@]1(O)C(=O)OCc2c1cc1n(c2=O)Cc2c-1nc1ccccc1c2CNCc1ccccc1` has an IC50 (A549 [1]) of 0.122 µM, an IC50 (KB) of 0.18 µM and an IC50 (MDA-MB-231) of 0.337 µM. For the same molecule, the IC50 (cells) was 0.117 µM.
`CC[C@@]1(O)C(=O)OCc2c1cc1n(c2=O)Cc2c-1nc1ccccc1c2CNc1cccc2ccccc12` showed an IC50 (A549 [1]) of 0.0362 µM, an IC50 (KB) of 0.0615 µM and an IC50 (MDA-MB-231) of 0.064 µM. It also gave an IC50 (cells) of 0.078 µM.
In the case of `CC[C@@]1(O)C(=O)OCc2c1cc1n(c2=O)Cc2c-1nc1ccccc1c2CNc1ccccc1Cl`, the IC50 (A549 [1]) is reported as 0.017 µM, the IC50 (KB) is reported as 0.0371 µM and the IC50 (MDA-MB-231) is reported as 0.0576 µM. For the same molecule, the IC50 (cells) was 0.0128 µM.
In the case of `CC[C@@]1(O)C(=O)OCc2c1cc1n(c2=O)Cc2c-1nc1ccccc1c2CNc1ccccc1`, the IC50 (A549 [1]) is reported as 0.0532 µM, the IC50 (KB) is reported as 0.0783 µM and the IC50 (MDA-MB-231) is reported as 0.0781 µM. The IC50 (cells) was 0.0479 µM.
